Source: US12559506B2, “Indazole based compounds and associated methods of use” (Arvinas Operations, Inc., priority 2021, dated 2026)
Like-named read-outs stand apart in the source and are kept apart here.

Biological target: T1, LRRK2 (endogenous, HiBit tagged) (Homo sapiens, UniProt Q5S007)
T1 construct: endogenous in cells; host or cells: HEK293 cells with HiBit knock-in at the endogenous LRRK2 locus, stably expressing firefly luciferase
Test: Endogenous LRRK2 degradation assay, endogenous gene C-terminally HiBit-tagged in HEK293 cells (Nano-Glo Dual Luciferase)
Assay type: cell-based
Details: endogenous HiBit-tagged LRRK2 in HEK293 cells, 24 hours treatment
Method in brief: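 LRRK2-HiBit quantified via Nano-Glo Dual Luciferase in HEK293 knock-in cells co-expressing firefly luciferase, after 24 h exposure to compound (1 μM final top, 1:3, 11 points). Values normalised to DMSO median per plate and curve-fitted; Alamar Blue viability run alongside.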

[1] = read-out: **Endogenous WT Dmax (%)

T1 sequence (Q5S007 whole entry): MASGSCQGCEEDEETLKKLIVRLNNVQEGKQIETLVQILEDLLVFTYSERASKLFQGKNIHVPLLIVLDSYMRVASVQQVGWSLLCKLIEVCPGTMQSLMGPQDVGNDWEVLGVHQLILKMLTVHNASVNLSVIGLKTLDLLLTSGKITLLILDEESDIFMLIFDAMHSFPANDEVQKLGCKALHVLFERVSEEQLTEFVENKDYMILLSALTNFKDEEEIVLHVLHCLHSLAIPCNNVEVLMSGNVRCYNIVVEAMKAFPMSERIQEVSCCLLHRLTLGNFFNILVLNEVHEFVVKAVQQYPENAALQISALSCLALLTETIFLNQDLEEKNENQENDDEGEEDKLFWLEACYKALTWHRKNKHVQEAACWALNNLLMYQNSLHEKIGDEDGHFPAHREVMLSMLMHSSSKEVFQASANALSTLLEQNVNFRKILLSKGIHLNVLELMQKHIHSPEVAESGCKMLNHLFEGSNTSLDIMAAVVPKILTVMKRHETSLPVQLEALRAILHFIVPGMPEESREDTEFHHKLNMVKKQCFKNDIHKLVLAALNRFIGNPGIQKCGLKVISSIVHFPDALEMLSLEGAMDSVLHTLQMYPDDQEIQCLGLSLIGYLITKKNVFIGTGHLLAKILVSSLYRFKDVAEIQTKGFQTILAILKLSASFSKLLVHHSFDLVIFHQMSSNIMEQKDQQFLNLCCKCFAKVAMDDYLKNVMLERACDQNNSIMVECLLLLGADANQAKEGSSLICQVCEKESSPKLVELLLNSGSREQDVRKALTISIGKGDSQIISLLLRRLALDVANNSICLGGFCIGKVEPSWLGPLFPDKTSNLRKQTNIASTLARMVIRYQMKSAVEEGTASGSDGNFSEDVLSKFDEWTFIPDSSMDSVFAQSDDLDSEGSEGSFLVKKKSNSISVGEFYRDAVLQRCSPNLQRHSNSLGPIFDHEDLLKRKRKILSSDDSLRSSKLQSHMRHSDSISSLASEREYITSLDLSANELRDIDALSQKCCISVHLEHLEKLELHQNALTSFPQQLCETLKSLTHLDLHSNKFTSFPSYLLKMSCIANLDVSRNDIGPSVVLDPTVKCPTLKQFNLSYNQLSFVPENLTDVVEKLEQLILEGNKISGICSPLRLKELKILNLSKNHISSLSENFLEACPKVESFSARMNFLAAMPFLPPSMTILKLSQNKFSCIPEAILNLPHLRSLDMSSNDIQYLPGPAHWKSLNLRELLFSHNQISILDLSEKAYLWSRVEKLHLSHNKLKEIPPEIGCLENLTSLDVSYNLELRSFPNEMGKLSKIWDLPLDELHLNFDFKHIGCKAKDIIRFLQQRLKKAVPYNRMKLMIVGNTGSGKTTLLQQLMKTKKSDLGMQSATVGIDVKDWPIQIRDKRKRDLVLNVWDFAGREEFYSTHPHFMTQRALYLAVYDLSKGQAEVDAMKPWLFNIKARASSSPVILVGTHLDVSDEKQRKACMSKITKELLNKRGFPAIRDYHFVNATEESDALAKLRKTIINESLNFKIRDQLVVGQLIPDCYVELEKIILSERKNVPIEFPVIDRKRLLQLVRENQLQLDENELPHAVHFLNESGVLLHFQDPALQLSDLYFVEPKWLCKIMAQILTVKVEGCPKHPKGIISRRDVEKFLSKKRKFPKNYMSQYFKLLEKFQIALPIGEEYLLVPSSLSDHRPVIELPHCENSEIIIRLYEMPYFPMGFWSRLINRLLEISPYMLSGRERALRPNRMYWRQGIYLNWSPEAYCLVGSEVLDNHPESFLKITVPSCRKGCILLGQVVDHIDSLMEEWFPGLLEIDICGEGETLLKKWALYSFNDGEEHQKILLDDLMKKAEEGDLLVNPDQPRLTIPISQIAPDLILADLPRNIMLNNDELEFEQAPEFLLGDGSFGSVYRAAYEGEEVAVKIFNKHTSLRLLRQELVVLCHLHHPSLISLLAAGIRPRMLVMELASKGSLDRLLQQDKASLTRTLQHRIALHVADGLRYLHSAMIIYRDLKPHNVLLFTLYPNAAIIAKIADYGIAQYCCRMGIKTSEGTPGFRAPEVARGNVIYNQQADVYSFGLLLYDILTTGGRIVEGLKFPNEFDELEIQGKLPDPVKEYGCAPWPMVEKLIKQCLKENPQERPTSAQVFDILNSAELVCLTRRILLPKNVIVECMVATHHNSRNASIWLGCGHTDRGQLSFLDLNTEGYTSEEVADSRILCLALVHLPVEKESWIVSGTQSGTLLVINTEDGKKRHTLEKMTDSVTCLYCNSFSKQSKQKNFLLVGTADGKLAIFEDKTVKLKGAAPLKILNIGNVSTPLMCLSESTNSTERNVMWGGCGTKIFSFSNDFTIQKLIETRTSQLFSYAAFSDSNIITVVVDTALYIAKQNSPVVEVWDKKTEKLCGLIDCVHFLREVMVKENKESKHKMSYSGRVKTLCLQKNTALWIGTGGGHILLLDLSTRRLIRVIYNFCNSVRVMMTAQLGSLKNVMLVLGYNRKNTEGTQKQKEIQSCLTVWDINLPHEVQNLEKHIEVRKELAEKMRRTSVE

SMILES	Dmax [1] [%]	DC50 (read-out: *Endogenous WT DC50) [nM]	DC50 (read-out: Endogenous WT DC50) [nM]	Dmax (read-out: Endogenous WT Dmax) [%]
CC1(Oc2ccc3n[nH]c(-c4cc(N5CCC(O[C@H]6C[C@H](N7CCC8(CC7)CN(c7ccc9c(c7F)CN(C7CCC(=O)NC7=O)C9=O)C8)C6)CC5)ncn4)c3c2)CC1 (some centres unmarked) [Compound 323, 3-(4-fluoro-1-oxo-5-{7-[(1r,3r)-3-[(1-{6-[5-(1-methylcyclopropoxy)-2H-indazol-3-yl]pyrimidin-4-yl}piperidin-4-yl)oxy]cyclobutyl]-2,7-diazaspiro[3.5]nonan-2-yl}-2,3-dihydro-1H-isoindol-2-yl)piperidine-2,6-dione]	50 to 70	< 10		
C[C@H]1CN(c2cc(-c3n[nH]c4ccc(OC5(C)CC5)cc34)ncn2)CCN1C[C@H]1CC[C@H](OC2CCN(c3ccc4c(c3F)CN(C3CCC(=O)NC3=O)C4=O)CC2)CC1 (stereo partly drawn) [Compound 348, 3-(4-fluoro-5-(4-(((1s,4r)-4-(((S)-2-methyl-4-(6-(5-(1-methylcyclopropoxy)-1H-indazol-3-yl)pyrimidin-4-yl)piperazin-1-yl)methyl)cyclohexyl)oxy)piperidin-1-yl)-1-oxoisoindolin-2-yl)piperidine-2,6-dione]	50 to 70	< 10		
CC1(Oc2cc3c(-c4cc(N5CCC(CN6CCN(CC7CCN(c8ccc9c(c8F)CN(C8CCC(=O)NC8=O)C9=O)CC7)C(C)(C)C6)CC5)ncn4)n[nH]c3cn2)CC1 (centres unmarked) [Compound 270, 3-{5-[4-({2,2-dimethyl-4-[(1-{6-[5-(1-methylcyclopropoxy)-1H-pyrazolo[3,4-c]pyridin-3-yl]pyrimidin-4-yl}piperidin-4-yl)methyl]piperazin-1-yl}methyl)piperidin-1-yl]-4-fluoro-1-oxo-2,3-dihydro-1H-isoindol-2-yl}piperidine-2,6-dione]	≥ 70	< 10		
C[C@H]1CN(CC2CCN(c3ccc4c(c3F)CN(C3CCC(=O)NC3=O)C4=O)CC2)CCN1CC1CCN(c2cc(-c3n[nH]c4cnc(OC5(C)CC5)cc34)ncn2)CC1 (stereo partly drawn) [Compound 266, 3-[4-fluoro-5-(4-{[(3S)-3-methyl-4-[(1-{6-[5-(1-methylcyclopropoxy)-1H-pyrazolo[3,4-c]pyridin-3-yl]pyrimidin-4-yl}piperidin-4-yl)methyl]piperazin-1-yl]methyl}piperidin-1-yl)-1-oxo-2,3-dihydro-1H-isoindol-2-yl]piperidine-2,6-dione]	≥ 70	< 10		
COc1c(N2CCC(CN3CCN(C[C@@H]4CCN(c5cc(-c6n[nH]c7ccc(OC8(C)CC8)cc67)ncn5)C4)CC3)CC2)ccc2c1CN(C1CCC(=O)NC1=O)C2=O (stereo partly drawn) [Compound 311, 3-(4-methoxy-5-{4-[(4-{[(3S)-1-{6-[5-(1-methylcyclopropoxy)-1H-indazol-3-yl]pyrimidin-4-yl}pyrrolidin-3-yl]methyl}piperazin-1-yl)methyl]piperidin-1-yl}-1-oxo-2,3-dihydro-1H-isoindol-2-yl)piperidine-2,6-dione]	50 to 70	< 10		
COc1c(N2CCC(C(C)(C)N3CCN(CC4CCN(c5cc(-c6n[nH]c7ccc(OC8(C)CC8)cc67)ncn5)CC4)CC3)CC2)ccc2c1CN(C1CCC(=O)NC1=O)C2=O (centres unmarked) [Compound 318, 3-{4-methoxy-5-[4-(2-{4-[(1-{6-[5-(1-methylcyclopropoxy)-1H-indazol-3-yl]pyrimidin-4-yl}piperidin-4-yl)methyl]piperazin-1-yl}propan-2-yl)piperidin-1-yl]-1-oxo-2,3-dihydro-1H-isoindol-2-yl}piperidine-2,6-dione]	≥ 70	< 10		
CC1(Oc2ccc3[nH]nc(-c4cc(N5CCC(CC6(F)CCN(CC7CCN(c8ccc9c(c8F)CN(C8CCC(=O)NC8=O)C9=O)CC7)CC6)CC5)ncn4)c3c2)CC1 (centres unmarked) [Compound 206, 3-[4-fluoro-5-[4-[[4-fluoro-4-[[1-[6-[5-(1-methylcyclopropoxy)-1H-indazol-3-yl]pyrimidin-4-yl]-4-piperidyl]methyl]-1-piperidyl]methyl]-1-piperidyl]-1-oxo-isoindolin-2-yl]piperidine-2,6-dione]			< 10	≥ 70
